Consider 7 compounds from ChEMBL document CHEMBL3769344 (J Med Chem, 2016).

One series relates to Influenza A virus. In words: Antiviral activity against Influenza A virus A/udorn/72(H3N2) expressing wild type M2 proton channel infected in MDCK cells assessed as reduction in plaque formation preincubated for 30 mins followed by infection measured on day 2 post infection by naphthalene black dye-based assay. In kind it is functional, organism-based, Influenza A virus (A/udorn/1972(H3N2)).

For series [1], the target named is Matrix protein 2 (Influenza A virus (A/Udorn/307/1972(H3N2)), UniProt P0DOF8). Description: Inhibition of Influenza A virus wild type M2 proton channel infected in Xenopus laevis oocytes after 2 mins by TEVC assay. Format: cell-based.
Chain of Matrix protein 2 (Influenza A virus (A/Udorn/307/1972(H3N2)), UniProt P0DOF8) (P0DOF8 whole entry): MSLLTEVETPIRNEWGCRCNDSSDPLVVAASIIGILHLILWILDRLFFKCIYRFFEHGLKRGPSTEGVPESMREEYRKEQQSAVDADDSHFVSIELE
Another series relates to MDCK. Description: Cytotoxicity against MDCK cells assessed as cell viability after 72 hrs by MTT assay. In kind it is cell-based, Canis lupus familiaris. The note with it: dog. A general note: Formazan colour is commonly taken as a measure of viable cells.

What is called EC50 is the concentration at which the effect is half-maximal. Usually IC50 stands for the midpoint of a concentration-inhibition curve. For orientation: CC50 means the concentration that lowers cell viability or growth by half.

Regarding `NC12CC3CC(CC(C3)C1)C2` [AMANTADINE], the EC50 in the series on Influenza A virus is 0.3 µM. On to `C1CCC2(CC1)CCNCC2`, for which the IC50 in series [1] turned out to be 0.9 µM. Take `OC1C2CC3CC1CC(NCc1cc(-c4cccs4)on1)(C3)C2` (configuration not stated): in the series on MDCK, the cytotoxic concentration (CC50) worked out at 116 µM. Consider `OC12CC3CC(O)(C1)CC(NCc1cc(-c4cccs4)on1)(C3)C2`, for which, in the series on MDCK, the CC50 is greater than 200 µM. Same read-out and setting: to `c1csc(-c2cc(NC34CC5CC(CC(C5)C3)C4)no2)c1` belongs 100 µM; to `c1csc(-c2ncc(CNC34CC5CC(CC(C5)C3)C4)s2)c1`, 113 µM; to `c1csc(-c2nnc(CNC34CC5CC(CC(C5)C3)C4)s2)c1`, greater than 200 µM.
